In patent US7323569B2, “7-phenylpyrazolopyridine compounds” (Eisai R&D Management Co., Ltd., priority 2002, dated 2008):
Where two headings read alike, the source gives them in different places.

Tested on: CYP3A4
Conditions: human, hepatocytes, 48 h
Procedure: Evaluation of Drug Metabolizing Enzyme (CYP3A4) Inducibility Using Cryopreserved Human Hepatocyte
Cryopreserved hepatocytes (In Vitro Technology) were rapidly thawed while stirring at 37° C., and then ice-cooled William's Medium E (10% FBS, +PSG) was slowly added to the cells prior to centrifugation at 500 rpm for 5 minutes. After removing the supernatant, the obtained hepatocytes were diluted with ice-cooled William's Medium E to a concentration of 5×10^5 cells/mL, seeded on a 48-well collagen coated plate (BD Biosciences) at 1×10^5 cells/cm^2 and incubated for about 24 hours at 37° C., 5% CO2, after which the medium was changed with Hepato-STIM™ (BD Biosciences) (+EGF, PSG, −FBS) and culture was maintained for another 24 hours under conditions of 37° C., 5% CO2. At approximately 48 hours after the cell seeding, the test compound or rifampicin (SIGMA, positive control) in the form of a diluted solution (using Hepato-STIM™ (+EGF, PSG, −FBS)) was added, hepatocyte were incubated for about 24 hours under conditions of 37° C., 5% CO2, and the culture medium was changed with medium containing a freshly prepared dilution of the test compound or rifampicin prior to further incubation for 24 hours under the same conditions. After incubation, the cells were washed once with PBS, and the total RNA was extracted using a Qiagen RNeasy Mini kit (Qiagen). The cDNA was synthesized by reverse-transcription of extracted using TaqMan Reverse Transcription Reagents (Applied Biosystems). The reverse transcription reaction was carried out using oligo dT as primer, with treatment at 25° C. for 10 minutes followed by treatment at 48° C. for 60 minutes, after which the reverse transcriptase was inactivated by treatment at 95° C. for 10 minutes. The obtained cDNA was supplied to a PCR using a Gene Amp PCR system 9700. The obtained cDNA was quantitated using an SYBR Green PCR Core Reagents kit (Applied Biosystems), and the human CYP3A4 and GAPDH mRNA was quantitated using an ABI7700 (Applied Biosystems). The abbreviations used in the test example are explained below. • FBS: Fetal Bovine Serum • PSG: Penicillin (100 U/ml), Streptomycin (100 μg/ml), Glutamine (2 mM) • EGF: Epidermal Growth Factor • GAPDH: Glyceraldehyde-3-Phosphate Dehydrogenase
(2) Calculation of CYP3A4 Inducibility
Next, for comparison of each test run, the differences between the value of the CYP3A4 mRNA amount divided by the GAPDH mRNA amount with addition of the test compound at various concentrations and with addition of the negative control were calculated as percentages, with 100% being defined as the difference between the values of the CYP3A4 mRNA amount divided by the GAPDH mRNA amount for the positive control and negative control, to determine the inducibility of each test compound.

| CYP3A4 inducibility, % of Positive Control (0.03 μM) | CYP3A4 inducibility, % of Positive Control (0.1 μM) | CYP3A4 inducibility, % of Positive Control (0.3 μM) | CYP3A4 inducibility (1 μM) | CYP3A4 inducibility, % of Positive Control (1 μM) | CYP3A4 inducibility, % of Positive Control (3 μM) | CYP3A4 inducibility, % of Positive Control (10 μM) | SMILES |
| --- | --- | --- | --- | --- | --- | --- | --- |
| 6% | 7% | 12% | ≤ 40% | 20% | 36% | 65% | CCc1nn2c(-c3c(OC)cc(COC)cc3OC)cccc2c1N(CC1CCOCC1)CC1CC1 [Example 1, N-Cyclopropylmethyl-N-7-[2,6-dimethoxy-4-(methoxymethyl)phenyl]-2-ethylpyrazolo[1,5-a]pyridin-3-yl-N-tetrahydro-2H-4-pyranylmethylamine] |
| 3% | 3% | 7% | ≤ 40% | 25% | 23% | 34% | CCOCc1cc(OC)c(-c2cccc3c(N(CC4CCOCC4)CC4CC4)c(CC)nn23)c(OC)c1 [Example 3, N-Cyclopropylmethyl-N-7-[4-(ethoxymethyl)-2,6-dimethoxyphenyl]-2-ethylpyrazolo[1,5-a]pyridin-3-yl-N-tetrahydro-2H-4-pyranylmethylamine] |
| 2% | 3% | 11% | ≤ 40% | 25% | 49% | 59% | COCc1cc(OC)c(-c2cccc3c(N(CC4CCOCC4)CC4CC4)c(SC)nn23)c(OC)c1 [Example 59, N-Cyclopropylmethyl-N-[7-[2,6-dimethoxy-4-(methoxymethyl)phenyl]-2-(methylsulfanyl)pyrazolo[1,5-a]pyridin-3-yl]-N-tetrahydro-2H-4-pyranylmethylamine] |
